Assay results from US5698551A, “Heterocyclic compounds” (Novo Nordisk A/S, priority 1995, dated 1997).

Tested on: NMRI female mice
Assay: Inhibition of formalin induced pain response in mice
Format: in vivo
Conditions: at 0.1 mg/kg, 1% formalin into left hind paw
Procedure: Formalin induced pain or paw oedema
Values for in vivo inhibition of formalin induced pain or oedema for the compounds of the present invention were assessed in mice essentially by the method of Wheeler-Aceto and Cowan (Agents Action 1991, 34, 265-269).
About 20 g NMRI female mice were injected […] 1% formalin into the left hind paw. The animals were then placed on a heated (31° C.) table, and the pain response was scored. After 1 h they were killed and bled. Left and right hind paws were removed and the weight difference between the paws was used as indication of the oedema response of the formalin injected paw.
Values for inhibition of formalin induced pain response for some representative compounds are recorded in table 1.

Row | Structure (SMILES) | % Pain inhibition (inhibition of formalin induced pain response) [%]
1 | Cl.O=C(O)[C@@H]1CCCN(CCCn2c(=O)c3ccccc3c(=O)c3ccccc32)C1 [Example 4, (R)-1-(3-(6,11-Dioxo-6,11-dihydro-5H-dibenz[b,e]azepin-5-yl)-1-propyl)-3-piperidine-carboxylic acid hydrochloride] | 28
2 | Cl.O=C(O)[C@@H]1CCCN(CCCN2C(=O)c3ccccc3CCc3ccccc32)C1 [Example 2, (R)-1-(3-(6-Oxo-11,12-dihydro-5H-dibenz[b,f]azocin-5-yl)-1-propyl)-3-piperidinecarboxylic acid hydrochloride] | 34
3 | Cl.O=C(O)[C@@H]1CCCN(CCCN2C(=O)c3ccccc3Nc3ccccc32)C1 [Example 1, (R)-1-(3-(11-Oxo-10,11-dihydro-5H-dibenzo[b,e][1,4]diazepin-10-yl)-1-propyl)-3-piperidinecarboxylic acid hydrochloride] | 13
4 | Cl.Cl.O=C(O)[C@@H]1CCCN(CCCN2Cc3ccccc3CCc3ccccc32)C1 [Example 6, (R)-1-(3-(5,6,11,12-Tetrahydro-dibenz[b,f]azocin-5-yl)-1-propyl)-3-piperidinecarboxylic acid dihydrochloride] | 22
5 | Cl.O=C(O)[C@@H]1CCCN(CCCN2Cc3ccccc3Cc3ccccc32)C1 [Example 3, (R)-1-(3-(6,11-Dihydro-5H-dibenz[b,e]azepin-5-yl)-1-propyl)-3-piperidine-carboxylic acid hydrochloride] | 36
